# From ChEMBL document CHEMBL1158169, “Functionalized chalcones with basic functionalities have antibacterial activity against drug sensitive Staphylococcus aureus” (Eur J Med Chem, 2008)
# Columns and labels:
# [1] = test system: Escherichia coli; test: Antibacterial activity against Escherichia coli ATCC 49696 after 20 hrs by microdilution assay; assay type: functional; conditions: ATCC 49696, 20 h
# [2] = test system: Staphylococcus aureus; test: Antibacterial activity against methicillin-sensitive Staphylococcus aureus ATCC 13150 after 20 hrs by microdilution assay; assay type: functional
# [3] = Toxicity in sheep erythrocytes assessed as hemolysis at 100 uM after 90 mins; assay type: cell-based, Ovis aries, Erythrocyte; conditions: read-out: Activity
# [4] = test system: Staphylococcus aureus; test: Antibacterial activity against Staphylococcus aureus; assay type: functional
# [5] = test system: Staphylococcus aureus; test: Antibacterial activity against methicillin-resistant Staphylococcus aureus; assay type: functional
# [6] = Toxicity in sheep erythrocytes assessed as hemolysis at 300 uM after 90 mins; assay type: cell-based, Ovis aries, Erythrocyte; conditions: read-out: Activity
# [7] = Toxicity in sheep erythrocytes assessed as hemolysis at 25 uM after 90 mins; assay type: cell-based, Ovis aries, Erythrocyte; conditions: read-out: Activity
# [8] = Staphylococcus aureus, ATCC 13150, 20 h, read-out: MIC
Compound,MIC [1] [µM],"MIC [2, 8] [µM]",also measured
COc1ccc(C(=O)/C=C/c2ccc(Cl)cc2)c(OC)c1,> 100,> 100,–
CN1CCC(c2ccc(O)c(C(=O)/C=C/c3ccccc3Cl)c2)CC1,> 100,25,"hemolysis at 1.5 h, 100 µM [3]: 14.8%"
COc1cc(OC)c(C2CCN(C)CC2)cc1C(=O)/C=C/c1ccc(C)cc1,> 100,> 100,–
COc1ccccc1/C=C/C(=O)c1cc(C2CCN(C)CC2)c(OC)cc1OC,> 100,> 100,–
COc1ccc(/C=C/C(=O)c2cc(C3CCN(C)CC3)c(OC)cc2OC)cc1,> 100,> 100,–
COc1cc(OC)c(C2CCN(C)CC2)cc1C(=O)/C=C/c1ccccc1F,> 100,> 100,–
COc1cc(OC)c(C2CCN(C)CC2)cc1C(=O)/C=C/c1ccc(C(F)(F)F)cc1,> 100,50,–
COc1cc(OC)c(C2CCN(C)CC2)c(O)c1C(=O)/C=C/c1ccccc1Cl,> 100,50,–
COc1cc(OC)c(C2CCN(C)CC2)c(O)c1C(=O)/C=C/c1ccc(Cl)cc1,> 100,25,"hemolysis at 1.5 h, 100 µM [3]: 5.5%"
COc1ccc(C(=O)/C=C/c2ccccn2)c(OC)c1,> 100,> 100,–
COc1ccc(C(=O)/C=C/c2ccc(N3CCN(C)CC3)cc2)c(OC)c1,> 100,> 100,–
COc1cc(OC)c(C2CCN(C)CC2)c(O)c1C(=O)/C=C/c1ccccc1,> 100,> 100,–
COc1cc(OC)c(C2CCN(C)CC2)c(O)c1C(=O)/C=C/c1ccccc1F,> 100,> 100,–
COc1cc(OC)c(C2CCN(C)CC2)c(O)c1C(=O)/C=C/c1ccc(C)cc1,> 100,6.25,"hemolysis at 1.5 h, 100 µM [3]: 6.7%"
COc1ccccc1/C=C/C(=O)c1c(OC)cc(OC)c(C2CCN(C)CC2)c1O,> 100,50,–
COc1cccc(/C=C/C(=O)c2c(OC)cc(OC)c(C3CCN(C)CC3)c2O)c1,> 100,> 100,–
COc1cc(OC)c(C2CCN(C)CC2)c(O)c1C(=O)/C=C/c1cccc(Cl)c1,> 100,6.25,"hemolysis at 1.5 h, 100 µM [3]: 6.5%"
COc1cc(OC)c(C2CCN(C)CC2)c(O)c1C(=O)/C=C/c1ccc(C#N)cc1,> 100,> 100,–
COc1cc(OC)c(C2CCN(C)CC2)cc1C(=O)/C=C/c1ccc(Cl)cc1,> 100,> 100,–
COc1cc(OC)c(C2CCN(C)CC2)cc1C(=O)/C=C/c1ccncc1,> 100,> 100,–
COc1cc(OC)c(C2CCN(C)CC2)c(O)c1C(=O)/C=C/c1ccc(N(C)C)cc1,> 100,25,"hemolysis at 1.5 h, 100 µM [3]: 10.3%"
COc1cc(OC)c(C2CCN(C)CC2)cc1C(=O)/C=C/c1cccnc1,> 100,> 100,–

Compound,MIC [1] [µM],"MIC [2, 8] [µM]",also measured
COc1cc(OC)c(N2CCC(N3CCCCC3)CC2)cc1C(=O)/C=C/c1ccccc1Cl,> 100,> 100,–
COc1cc(OC)c(C2CCN(C)CC2)cc1C(=O)/C=C/c1ccccn1,> 100,> 100,–
COc1cc(O)c(C(=O)/C=C/c2ccccc2)cc1C,> 100,> 100,–
COc1ccc(C2CCN(C)CC2)cc1C(=O)/C=C/c1ccccc1Cl,> 100,> 100,–
COc1ccc(C(=O)/C=C/c2ccccc2Cl)c(OC)c1,> 100,> 100,–
COc1ccc(C2CCN(C)CC2)cc1C(=O)/C=C/c1ccc(Cl)cc1,> 100,> 100,–
COc1ccc(C2CCN(C)CC2)cc1C(=O)/C=C/c1ccccc1,> 100,100,–
CCN1CCC(c2cc(C(=O)/C=C/c3ccccc3Cl)c(OC)cc2OC)CC1,> 100,> 100,–
CCN1CCC(c2cc(C(=O)/C=C/c3ccccc3)c(OC)cc2OC)CC1,> 100,> 100,–
CCN1CCC(c2cc(C(=O)/C=C/c3ccc(Cl)cc3)c(OC)cc2OC)CC1,> 100,50,–
CCN1CCC(c2cc(C(=O)/C=C/c3ccc(N4CCN(C)CC4)cc3)c(OC)cc2OC)CC1,> 100,> 100,–
CCN1CCC(c2cc(C(=O)/C=C/c3ccncc3)c(OC)cc2OC)CC1,> 100,> 100,–
COc1cc(OC)c(C2CCN(C)CC2)cc1C(=O)/C=C/c1ccc(N2CCN(C)CC2)cc1,> 100,> 100,–
COc1cc(O)c(C(=O)/C=C/c2ccccc2Cl)cc1C,> 100,> 100,–
COc1cc(OC)c(C2CCN(C)CC2)c(O)c1C(=O)/C=C/c1ccc(C(F)(F)F)cc1,> 100,> 100,–
COc1cc(OC)c(C2CCN(C)CC2)cc1C(=O)/C=C/c1ccccc1C,> 100,> 100,–
COc1cc(OC)c(C2CCN(C)CC2)cc1C(=O)/C=C/c1ccccc1,> 100,> 100,–
COc1cc(OC)c(C2CCN(C)CC2)c(O)c1C(=O)/C=C/c1ccccc1C,> 100,50,–
COc1cc(OC)c(C2CCN(C)CC2)c(O)c1C(=O)/C=C/c1ccc(N2CCN(C)CC2)cc1,> 100,> 100,–
COc1ccc(/C=C/C(=O)c2c(OC)cc(OC)c(C3CCN(C)CC3)c2O)cc1,> 100,50,–
COc1cc(OC)c(C2CCN(C)CC2)c(O)c1C(=O)/C=C/c1ccc(F)cc1,> 100,> 100,–
COc1ccc(C(=O)/C=C/c2cccnc2)c(OC)c1,> 100,> 100,–

Compound,MIC [1] [µM],"MIC [2, 8] [µM]",also measured
COc1ccc(/C=C/C(=O)c2c(OC)cc(OC)c(C3CCN(C)CC3)c2O)c(OC)c1,> 100,> 100,–
COc1cc(O)c(C(=O)/C=C/c2ccccc2OC)cc1C,> 100,> 100,–
COc1ccc(/C=C/C(=O)c2cccc(N3CCNCC3)c2)c(OC)c1,> 100,100,–
COc1cc(OC)c(N2CCC(N3CCCCC3)CC2)cc1C(=O)/C=C/c1ccccc1F,> 100,> 100,–
O=C(/C=C/c1ccc(Cl)cc1)c1cccc(N2CCNCC2)c1,> 100,25,"hemolysis at 1.5 h, 100 µM [3]: 11.6%"
COc1cc(O)c(C(=O)/C=C/c2ccc(F)cc2)cc1C1CCN(C)CC1,> 100,> 100,–
O=C(/C=C/c1ccccc1)c1cccc(N2CCNCC2)c1,> 100,> 100,–
O=C(O)c1ccc(C(=O)/C=C/c2cc(Br)cc(Br)c2)cc1,–,–,MIC [4]: 2 µM
O=C(/C=C/c1ccccc1Cl)c1cccc(N2CCCCC2)c1,> 100,> 100,–
O=C(/C=C/c1ccc(Cl)cc1)c1cccc(N2CCCCC2)c1,> 100,> 100,–
COc1ccc(/C=C/C(=O)c2cccc(N3CCCCC3)c2)c(OC)c1,> 100,> 100,–
Cc1cc(C)cc(-c2ccc(N3CCNCC3)c(/C=C/C(=O)c3ccc(NCCN(C)C)cc3)c2)c1,–,–,MIC [5]: 2 µM
O=C(/C=C/c1ccccc1Cl)c1cccc(N2CCNCC2)c1,> 100,> 100,–
O=C(O)c1ccc(C(=O)/C=C/c2cc(C(F)(F)F)cc(C(F)(F)F)c2)cc1,–,–,MIC [4]: 2 µM
O=C(/C=C/c1ccccc1)c1cccc(N2CCCCC2)c1,> 100,> 100,–
COc1ccc(C(=O)/C=C/c2ccccc2)c(OC)c1,> 100,> 100,–
COc1cc(OC)c(C2CCN(C)CC2)cc1C(=O)/C=C/c1ccccc1Cl (stereo in doubt; 1-5),> 100,–,MIC [2]: 25 µM
COc1cc(OC)c(C2CCN(C)CC2)cc1C(=O)/C=C/c1ccccc1Cl (stereo in doubt; 7-140),–,–,MIC [2]: >100 µM
COc1ccc(C(=O)/C=C/c2ccncc2)c(OC)c1 [DILMEFONE],> 100,> 100,–
C=CC(C)(C)c1cc(/C=C/C(=O)c2ccc(O)cc2)c(OC)cc1O [LICOAGROCHACONE A],> 100,6.3,"hemolysis at 1.5 h, 100 µM [3]: 19.9%; hemolysis at 1.5 h, 300 µM [6]: 47.9%; hemolysis at 1.5 h, 25 µM [7]: 11.6%; MIC [5]: 18.4 µM"
CC1(C)S[C@@H]2[C@H](NC(=O)Cc3ccccc3)C(=O)N2[C@H]1C(=O)O [PENICILLIN G],–,0.1,–
